# According to patent US12371454B2, “Cyclic peptide compound having Kras inhibitory action” (priority 2019, dated 2025):
# pIC50: −log10 of the molar value. Starred links: 1 amine or outer side, 2 acyl side, 3 side chain; linkers in the order of their positions; H or OH if unused. Positions of bridges follow the written chain, without caps; N, C: chain ends. Non-standard residues stand in square brackets, D forms with d. Residues, ends and D or L forms follow the SMILES beside them. *: point of attachment. hPhe(3,5-F2-4-CF3) = N[C@@H](CCc1cc(F)c(C(F)(F)F)c(F)c1)C(=O)O; hPhe(3-Cl-4-CF3) = N[C@@H](CCc1ccc(C(F)(F)F)c(Cl)c1)C(=O)O; hPhe(3-F,4-CF3) = N[C@@H](CCc1ccc(C(F)(F)F)c(F)c1)C(=O)O; NMePhe(4-CF3) = CN[C@@H](Cc1ccc(C(F)(F)F)cc1)C(=O)O; 3Oxa8azabicyclo(3.2.1)octane = C1CC2COCC1N2*; NMePhe(4-Cl) = CN[C@@H](Cc1ccc(Cl)cc1)C(=O)O; NMedβ3hAla = C[C@H](CC(=O)[*:2])N(C)[*:1]; NMeGly(cPent) = CN[C@H](C(=O)O)C1CCCC1; Pro(4,4-F2) = O=C(O)[C@@H]1CC(F)(F)CN1; NMeGly(cBu) = CN[C@H](C(=O)O)C1CCC1; NMeCha = CN[C@@H](CC1CCCCC1)C(=O)O; Hyp = O=C(O)[C@@H]1C[C@@H](O)CN1; NEtLeu = CCN[C@@H](CC(C)C)C(=O)O; NMeAhp(2) = CCCCC[C@H](NC)C(=O)O; NMeChg = CN[C@H](C(=O)O)C1CCCCC1; NMeI = CC[C@H](C)[C@H](NC)C(=O)O; NMeD = CN[C@@H](CC(=O)O)C(=O)O; NMeL = CN[C@@H](CC(C)C)C(=O)O; NMeV = CN[C@H](C(=O)O)C(C)C; d(β3hA) = C[C@@H](N)CC(=O)O; Azetidin(1-yl) = C1CN(*)C1; NMeS = CN[C@@H](CO)C(=O)O; NMeA = CN[C@@H](C)C(=O)O; Piperidide = C1CCN(*)CC1; Pyrrolidide = C1CCN(*)C1; Ac5c = NC1(C(=O)O)CCCC1; Aze = O=C(O)[C@@H]1CCN1; Cyclobutyl = C1CC(*)C1; Aib = CC(C)(N)C(=O)O; Cyclopropyl = C1CC1*; NEtG = CCNCC(=O)O; Sar = CNCC(=O)O; Propyl = CCC*
# Tested on: Human pancreatic cancer cell line AsPC-1
# Assay: Measurement of AsPC-1 cell growth inhibition (AsPC-1 CGI)
# Type: cell-based
# Conditions: 96 h
# Procedure, shortened: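 AsPC-1 cells in 15% FBS RPMI-1640 were exposed to test compound for 96 hours at 37° C, with CellTiter-Glo as endpoint.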
row,SMILES,pIC50
1,"CC[C@H](C)[C@@H]1NC(=O)[C@H](CC(C)C)N(C)C(=O)C[C@@H](C(=O)N2CCCCC2)N(C)C(=O)[C@H](C(C)C)N(C)C(=O)C2(CCCC2)NC(=O)[C@@H]2CCCN2C(=O)[C@H](CCc2ccc(C(F)(F)F)c(F)c2)NC(=O)CN(C)C(=O)[C@H](CC2CCCCC2)N(C)C(=O)[C@@H]2CCN2C(=O)CN(C)C1=O [Compound 599] ([NMeL]I[Sar][Aze][NMeCha][Sar][hPhe(3-F,4-CF3)]P[Ac5c][NMeV][NMeD]-Piperidide; lactam N-11)",6.30 to 7.00
2,"CC[C@H](C)[C@@H]1NC(=O)[C@H](CC(C)C)N(C)C(=O)C[C@@H](C)N(C)C(=O)[C@H](C2CCCCC2)N(C)C(=O)C2(CCCC2)NC(=O)[C@@H]2CC(F)(F)CN2C(=O)[C@H](CCc2cc(F)c(C(F)(F)F)c(F)c2)NC(=O)CN(C)C(=O)[C@H](Cc2ccc(C(F)(F)F)cc2)N(C)C(=O)[C@@H]2CCN2C(=O)[C@H](C)N(C)C1=O [Compound 606] (cyclo([Ac5c][NMeChg][NMedβ3hAla][NMeL]I[NMeA][Aze][NMePhe(4-CF3)][Sar][hPhe(3,5-F2-4-CF3)][Pro(4,4-F2)]))",6.30 to 7.00
3,CCCCC[C@H]1C(=O)N[C@@H]([C@@H](C)CC)C(=O)N(C)[C@@H](C)C(=O)N2CC[C@H]2C(=O)N(C)[C@@H](COCCC)C(=O)N(C)CC(=O)N[C@@H](CCc2ccc(C(F)(F)F)c(Cl)c2)C(=O)N2CCC[C@H]2C(=O)NC2(CCCC2)C(=O)N(C)[C@@H](C2CCCC2)C(=O)N(C)[C@H](C(=O)N2C3CCC2COC3)CC(=O)N1C [Compound 622] ([NMeAhp(2)]I[NMeA][Aze][NMeS](Propyl)[Sar][hPhe(3-Cl-4-CF3)]P[Ac5c][NMeGly(cPent)][NMeD]-{3Oxa8azabicyclo(3.2.1)octane}; lactam N-11),7.30 to 7.70
4,CCO[C@@H]1C[C@H]2C(=O)NC3(CCCC3)C(=O)N(C)[C@@H](C3CCCCC3)C(=O)N(C)[C@H](C)CC(=O)N(C)[C@@H](CC(C)C)C(=O)N[C@@H]([C@@H](C)CC)C(=O)N(C)[C@@H](C)C(=O)N3CC[C@H]3C(=O)N(C)[C@@H](Cc3ccc(C(F)(F)F)cc3)C(=O)N(C)CC(=O)N[C@@H](CCc3ccc(C(F)(F)F)c(Cl)c3)C(=O)N2C1 [Compound 652] (cyclo([Ac5c][NMeChg][NMedβ3hAla][NMeL]I[NMeA][Aze][NMePhe(4-CF3)][Sar][hPhe(3-Cl-4-CF3)][Hyp](Et))),7.00 to 7.30
5,CC[C@H](C)[C@@H]1NC(=O)[C@H](CC(C)C)N(C)C(=O)C[C@@H](C)NC(=O)[C@H](C(C)C)N(C)C(=O)C2(CCCC2)NC(=O)[C@@H]2CCCN2C(=O)[C@H](CCc2ccc(C(F)(F)F)c(Cl)c2)NC(=O)CN(C)C(=O)[C@H](CC2CCCCC2)N(C)C(=O)[C@@H]2CCN2C(=O)CN(C)C1=O [Compound 663] (cyclo([Ac5c][NMeV][d(β3hA)][NMeL]I[Sar][Aze][NMeCha][Sar][hPhe(3-Cl-4-CF3)]P)),6.30 to 7.00
6,CC[C@H](C)[C@@H]1NC(=O)[C@H](CC(C)C)N(CC)C(=O)C[C@@H](C(=O)N2CCCCC2)N(C)C(=O)[C@H](C(C)C)N(C)C(=O)C2(CCCC2)NC(=O)[C@@H]2CCCN2C(=O)[C@H](CCc2ccc(C(F)(F)F)c(Cl)c2)NC(=O)CN(C)C(=O)[C@H](CC2CCCCC2)N(C)C(=O)[C@@H]2CCN2C(=O)[C@H](C)N(C)C1=O [Compound 667] ([NEtLeu]I[NMeA][Aze][NMeCha][Sar][hPhe(3-Cl-4-CF3)]P[Ac5c][NMeV][NMeD]-Piperidide; lactam N-11),6.30 to 7.00
7,CC[C@H](C)[C@@H]1NC(=O)[C@H](CC(C)C)N(C)C(=O)C[C@@H](C(=O)N2CCCCC2)N(C)C(=O)[C@H](C2CCC2)N(C)C(=O)C2(CCCC2)NC(=O)[C@@H]2CCCN2C(=O)[C@H](CCc2ccc(C(F)(F)F)c(Cl)c2)NC(=O)CN(C)C(=O)[C@H](CC2CCCCC2)N(C)C(=O)[C@@H]2CCN2C(=O)[C@H](C)N(C)C1=O [Compound 672] ([NMeL]I[NMeA][Aze][NMeCha][Sar][hPhe(3-Cl-4-CF3)]P[Ac5c][NMeGly(cBu)][NMeD]-Piperidide; lactam N-11),6.30 to 7.00
8,"CC[C@H](C)[C@@H]1NC(=O)[C@H](CC(C)C)N(C)C(=O)C[C@@H](C(=O)N2CCCCC2)N(C)C(=O)[C@H]([C@@H](C)CC)N(C)C(=O)C2(CCCC2)NC(=O)[C@@H]2CCCN2C(=O)[C@H](CCc2ccc(C(F)(F)F)c(F)c2)NC(=O)CN(C)C(=O)[C@H](C2CCCC2)N(C)C(=O)[C@@H]2CCN2C(=O)[C@H](C)N(C)C1=O [Compound 674] ([NMeL]I[NMeA][Aze][NMeGly(cPent)][Sar][hPhe(3-F,4-CF3)]P[Ac5c][NMeI][NMeD]-Piperidide; lactam N-11)",7.00 to 7.30
9,CC[C@H](C)[C@@H]1NC(=O)[C@H](CC(C)C)N(C)C(=O)C[C@@H](C(=O)N2CCCCC2)N(C)C(=O)[C@H](C(C)C)N(C)C(=O)C2(CCCC2)NC(=O)[C@@H]2CCCN2C(=O)[C@H](CCc2ccc(C(F)(F)F)c(Cl)c2)NC(=O)CN(C)C(=O)[C@H](CC2CCCCC2)N(C)C(=O)[C@@H]2CCN2C(=O)[C@H](COC2CC2)N(C)C1=O [Compound 676] ([NMeL]I[NMeS](Cyclopropyl)[Aze][NMeCha][Sar][hPhe(3-Cl-4-CF3)]P[Ac5c][NMeV][NMeD]-Piperidide; lactam N-11),6.30 to 7.00
10,CC[C@H](C)[C@@H]1NC(=O)[C@H](CC(C)C)N(C)C(=O)C[C@@H](C(=O)N(C)C)NC(=O)[C@H](C2CCCC2)N(C)C(=O)C2(CCCC2)NC(=O)[C@@H]2CCCN2C(=O)[C@H](CCc2ccc(C(F)(F)F)c(Cl)c2)NC(=O)CN(C)C(=O)[C@H](CC2CCCCC2)N(C)C(=O)[C@@H]2CCN2C(=O)[C@H](C)N(C)C1=O [Compound 677] ([NMeL]I[NMeA][Aze][NMeCha][Sar][hPhe(3-Cl-4-CF3)]P[Ac5c][NMeGly(cPent)]D-NMe2; lactam N-11),7.00 to 7.30
11,CC[C@H](C)[C@@H]1NC(=O)[C@H](CC(C)C)N(C)C(=O)C[C@@H](C(=O)N2CCCCC2)N(C)C(=O)[C@H](C(C)C)N(C)C(=O)C2(CCCC2)NC(=O)[C@@H]2CCCN2C(=O)[C@H](CCc2ccc(C(F)(F)F)c(Cl)c2)NC(=O)CN(C)C(=O)[C@H](Cc2ccc(Cl)cc2)N(C)C(=O)[C@@H]2CCN2C(=O)[C@H](C)N(C)C1=O [Compound 680] ([NMeL]I[NMeA][Aze][NMePhe(4-Cl)][Sar][hPhe(3-Cl-4-CF3)]P[Ac5c][NMeV][NMeD]-Piperidide; lactam N-11),6.30 to 7.00
12,"CCCOC[C@H]1C(=O)N(C)CC(=O)N[C@@H](CCc2ccc(C(F)(F)F)c(F)c2)C(=O)N2CCC[C@H]2C(=O)NC2(CCCC2)C(=O)N(C)[C@@H]([C@@H](C)CC)C(=O)N(C)[C@H](C(=O)N2CCCC2)CC(=O)N(C)[C@@H](CC(C)C)C(=O)N[C@@H]([C@@H](C)CC)C(=O)N(C)[C@@H](C)C(=O)N2CC[C@H]2C(=O)N1C [Compound 684] ([NMeL]I[NMeA][Aze][NMeS](Propyl)[Sar][hPhe(3-F,4-CF3)]P[Ac5c][NMeI][NMeD]-Pyrrolidide; lactam N-11)",7.30 to 7.70
13,"CCCOC[C@H]1C(=O)N(C)CC(=O)N[C@@H](CCc2ccc(C(F)(F)F)c(F)c2)C(=O)N2CCC[C@H]2C(=O)NC2(CCCC2)C(=O)N(C)[C@@H]([C@@H](C)CC)C(=O)N(C)[C@H](C)CC(=O)N(C)[C@@H](CC(C)C)C(=O)N[C@@H]([C@@H](C)CC)C(=O)N(C)[C@@H](C)C(=O)N2CC[C@H]2C(=O)N1C [Compound 694] (cyclo([Ac5c][NMeI][NMedβ3hAla][NMeL]I[NMeA][Aze][NMeS](Propyl)[Sar][hPhe(3-F,4-CF3)]P))",7.30 to 7.70
14,CC[C@H](C)[C@@H]1NC(=O)[C@H](CC(C)C)N(C)C(=O)C[C@@H](C(=O)N2CCCC2)NC(=O)[C@H](C2CCCC2)N(C)C(=O)C2(CCCC2)NC(=O)[C@@H]2CCCN2C(=O)[C@H](CCc2ccc(C(F)(F)F)c(Cl)c2)NC(=O)CN(C)C(=O)[C@H](CC2CCCCC2)N(C)C(=O)[C@@H]2CCN2C(=O)[C@H](C)N(C)C1=O [Compound 700] ([NMeL]I[NMeA][Aze][NMeCha][Sar][hPhe(3-Cl-4-CF3)]P[Ac5c][NMeGly(cPent)]D-Pyrrolidide; lactam N-11),6.30 to 7.00
15,CC[C@H](C)[C@@H]1NC(=O)[C@H](CC(C)C)N(C)C(=O)C[C@@H](C(=O)N2CCC2)N(C)C(=O)[C@H](C2CCCC2)N(C)C(=O)C2(CCCC2)NC(=O)[C@@H]2CCCN2C(=O)[C@H](CCc2ccc(C(F)(F)F)c(Cl)c2)NC(=O)CN(CC)C(=O)[C@H](CC2CCCCC2)N(C)C(=O)[C@@H]2CCN2C(=O)[C@H](C)N(C)C1=O [Compound 726] ([NMeL]I[NMeA][Aze][NMeCha][NEtG][hPhe(3-Cl-4-CF3)]P[Ac5c][NMeGly(cPent)][NMeD]-{Azetidin(1-yl)}; lactam N-11),7.30 to 7.70
16,CC[C@H](C)[C@@H]1NC(=O)[C@H](C(C)C)N(C)C(=O)C[C@@H](C)NC(=O)[C@H](CC(C)C)N(C)C(=O)C(C)(C)NC(=O)[C@H](CC(C)C)N(C)C(=O)[C@H](CCc2ccc(C(F)(F)F)c(Cl)c2)NC(=O)CN(C)C(=O)[C@H](Cc2ccc(Cl)cc2)N(C)C(=O)CN(C)C(=O)CN(C)C1=O [Compound 740] (cyclo([Aib][NMeL][d(β3hA)][NMeV]I[Sar][Sar][NMePhe(4-Cl)][Sar][hPhe(3-Cl-4-CF3)][NMeL])),6.30 to 7.00
17,CC[C@H](C)[C@@H]1NC(=O)[C@H](C)N(C)C(=O)C[C@@H](C)NC(=O)[C@H](C2CCCC2)N(C)C(=O)C2(CCCC2)NC(=O)[C@@H]2CCCN2C(=O)[C@H](CCc2ccc(C(F)(F)F)c(Cl)c2)NC(=O)CN(C)C(=O)[C@H](Cc2ccc(C(F)(F)F)cc2)N(C)C(=O)[C@@H]2CCCN2C(=O)CN(C)C1=O [Compound 749] (cyclo([Ac5c][NMeGly(cPent)][d(β3hA)][NMeA]I[Sar]P[NMePhe(4-CF3)][Sar][hPhe(3-Cl-4-CF3)]P)),6.30 to 7.00
18,CC[C@H](C)[C@@H]1NC(=O)[C@H](COC2CCC2)N(C)C(=O)C[C@@H](C(=O)N2CCCCC2)N(C)C(=O)[C@H](C(C)C)N(C)C(=O)C2(CCCC2)NC(=O)[C@@H]2CCCN2C(=O)[C@H](CCc2ccc(C(F)(F)F)c(Cl)c2)NC(=O)CN(C)C(=O)[C@H](CC2CCCCC2)N(C)C(=O)[C@@H]2CCN2C(=O)[C@H](C)N(C)C1=O [Compound 755] ([NMeS](Cyclobutyl)I[NMeA][Aze][NMeCha][Sar][hPhe(3-Cl-4-CF3)]P[Ac5c][NMeV][NMeD]-Piperidide; lactam N-11),6.30 to 7.00
